#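 A five-concentration, 48-hour dose response in 96-well plates underlies each endpoint, interpolated linearly between surrounding concentrations. Here, GI50 denotes the concentration required for 50% inhibition of growth.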 Calls of active or inactive are those of the source. No stated cut-off is given here; in the data, active = GI50 up to about 1.1 µM and inactive = higher.
# How the values were obtained:
# Test in all cases: DTP human tumour cell line panel, 48 h
# U-251 = system: U-251
# LOX IMVI = system: LOX IMVI
# RXF 631 = system: RXF 631
# 786-0 = system: 786-0
# ACHN = system: ACHN
# COLO 205 = system: COLO 205
# DMS-273 = system: DMS-273
# SK-MEL-28 = system: SK-MEL-28
# M19-MEL = system: M19-MEL
# A549 = system: A549
# NCI-H226 = system: NCI-H226
# UO-31 = system: UO-31
# IGROV-1 = system: IGROV-1
# OVCAR-4 = system: OVCAR-4
# OVCAR-8 = system: OVCAR-8
# TK-10 = system: TK-10
# SR = system: SR
# HL-60 = system: HL-60
# HCT-116 = system: HCT-116
# A498 = system: A498
# SNB-75 = system: SNB-75
# RPMI-8226 = system: RPMI-8226
# SF-268 = system: SF-268
# SF-539 = system: SF-539
# KM-20L2 = system: KM-20L2
# SN12C = system: SN12C
# LXFL 529 = system: LXFL 529
# NCI-H522 = system: NCI-H522
# M14 = system: M14
# SW-620 = system: SW-620
# HOP-92 = system: HOP-92
# DLD-1 = system: DLD-1
# KM12 = system: KM12
# CAKI-1 = system: CAKI-1
# SF-295 = system: SF-295
# HT-29 = system: HT-29
# CCRF-CEM = system: CCRF-CEM
# MOLT-4 = system: MOLT-4
# UACC-257 = system: UACC-257
# SNB-78 = system: SNB-78
# OVCAR-3 = system: OVCAR-3
# NCI-H23 = system: NCI-H23
# NCI-H460 = system: NCI-H460
# EKVX = system: EKVX
# HOP-18 = system: HOP-18
# UACC-62 = system: UACC-62
# HCC 2998 = system: HCC 2998
# DMS-114 = system: DMS-114
# Malme-3M = system: Malme-3M
# HOP-62 = system: HOP-62
# SNB-19 = system: SNB-19
# K562 = system: K562
# RXF 393 = system: RXF 393
# SK-OV-3 = system: SK-OV-3
# SK-MEL-2 = system: SK-MEL-2
# SK-MEL-5 = system: SK-MEL-5
# OVCAR-5 = system: OVCAR-5
# HCT-15 = system: HCT-15
structure (smiles),measurement,setting,value
COc1ccc(-c2cc(-c3cc(C)ccc3O)nc(O)n2)cc1,GI50,U-251,30.7 µM (inactive)
same,GI50,LOX IMVI,> 100 µM (inactive)
same,GI50,RXF 631,> 100 µM (inactive)
same,GI50,786-0,62.5 µM (inactive)
same,GI50,ACHN,42.8 µM (inactive)
same,GI50,COLO 205,> 100 µM (inactive)
same,GI50,DMS-273,50.8 µM (inactive)
same,GI50,SK-MEL-28,> 100 µM (inactive)
same,GI50,M19-MEL,> 100 µM (inactive)
same,GI50,A549,> 100 µM (inactive)
same,GI50,NCI-H226,> 100 µM (inactive)
same,GI50,UO-31,76.6 µM (inactive)
same,GI50,IGROV-1,> 100 µM (inactive)
same,GI50,OVCAR-4,> 100 µM (inactive)
same,GI50,OVCAR-8,74.8 µM (inactive)
same,GI50,TK-10,40.8 µM (inactive)
same,GI50,SR,> 100 µM (inactive)
same,GI50,HL-60,> 100 µM (inactive)
same,GI50,HCT-116,77.1 µM (inactive)
same,GI50,A498,74.6 µM (inactive)
same,GI50,SNB-75,26.2 µM (inactive)
same,GI50,RPMI-8226,> 100 µM (inactive)
same,GI50,SF-268,80.9 µM (inactive)
same,GI50,SF-539,30.1 µM (inactive)
same,GI50,KM-20L2,> 100 µM (inactive)
same,GI50,SN12C,> 100 µM (inactive)
same,GI50,LXFL 529,64 µM (inactive)
same,GI50,NCI-H522,24.6 µM (inactive)
same,GI50,M14,> 100 µM (inactive)
same,GI50,SW-620,> 100 µM (inactive)
same,GI50,HOP-92,32.6 µM (inactive)
same,GI50,DLD-1,> 100 µM (inactive)
same,GI50,KM12,> 100 µM (inactive)
same,GI50,CAKI-1,> 100 µM (inactive)
same,GI50,SF-295,41 µM (inactive)
same,GI50,HT-29,> 100 µM (inactive)
same,GI50,CCRF-CEM,> 100 µM (inactive)
same,GI50,MOLT-4,> 100 µM (inactive)
same,GI50,UACC-257,> 100 µM (inactive)
same,GI50,SNB-78,43.7 µM (inactive)
same,GI50,OVCAR-3,> 100 µM (inactive)
same,GI50,NCI-H23,> 100 µM (inactive)
same,GI50,NCI-H460,> 100 µM (inactive)
same,GI50,EKVX,7.11 µM (inactive)
same,GI50,HOP-18,> 100 µM (inactive)
same,GI50,UACC-62,> 100 µM (inactive)
same,GI50,HCC 2998,> 100 µM (inactive)
same,GI50,DMS-114,81.8 µM (inactive)
same,GI50,Malme-3M,> 100 µM (inactive)
same,GI50,HOP-62,22.6 µM (inactive)
same,GI50,SNB-19,47 µM (inactive)
same,GI50,K562,> 100 µM (inactive)
same,GI50,RXF 393,32.6 µM (inactive)
same,GI50,SK-OV-3,44.4 µM (inactive)
CCC(C)C(N)C(=O)NC(CC(N)=O)C(=O)NC(CC(C)C)C(=O)NC(CCCCN)C(=O)NC(C)C(=O)NC(CC(C)C)C(=O)NC(C)C(=O)NC(C)C(=O)NC(CC(C)C)C(=O)NC(C)C(=O)NC(CCCCN)C(=O)NC(CCCCN)C(=O)NC(C(=O)NC(CC(C)C)C(N)=O)C(C)CC (stereo unspecified),GI50,U-251,16.4 µM (inactive)
same,GI50,LOX IMVI,18.3 µM (inactive)
same,GI50,RXF 631,7.82 µM (inactive)
same,GI50,786-0,6.56 µM (inactive)
same,GI50,ACHN,14 µM (inactive)
same,GI50,COLO 205,16.1 µM (inactive)
same,GI50,DMS-273,7.43 µM (inactive)
same,GI50,SK-MEL-2,19.4 µM (inactive)
same,GI50,SK-MEL-5,6.53 µM (inactive)
same,GI50,SK-MEL-28,8.59 µM (inactive)
same,GI50,M19-MEL,10.1 µM (inactive)
same,GI50,OVCAR-5,14.6 µM (inactive)
same,GI50,A549,9.93 µM (inactive)
same,GI50,NCI-H226,14.5 µM (inactive)
same,GI50,UO-31,18.1 µM (inactive)
same,GI50,IGROV-1,17.8 µM (inactive)
same,GI50,OVCAR-4,15.3 µM (inactive)
same,GI50,OVCAR-8,17.5 µM (inactive)
same,GI50,TK-10,14.2 µM (inactive)
same,GI50,SR,19 µM (inactive)
same,GI50,HL-60,2.74 µM (inactive)
same,GI50,HCT-116,15.6 µM (inactive)
same,GI50,A498,17.9 µM (inactive)
same,GI50,SNB-75,6.56 µM (inactive)
same,GI50,SF-268,6.47 µM (inactive)
same,GI50,SF-539,6.08 µM (inactive)
same,GI50,KM-20L2,22.5 µM (inactive)
same,GI50,SN12C,13.6 µM (inactive)
same,GI50,LXFL 529,14.9 µM (inactive)
same,GI50,NCI-H522,16.7 µM (inactive)
same,GI50,M14,2.48 µM (inactive)
same,GI50,SW-620,20.4 µM (inactive)
same,GI50,HOP-92,1.14 µM (inactive)
same,GI50,DLD-1,10.4 µM (inactive)
same,GI50,KM12,14.5 µM (inactive)
same,GI50,HCT-15,16.6 µM
same,GI50,CAKI-1,8.3 µM (inactive)
same,GI50,SF-295,19.8 µM (inactive)
same,GI50,HT-29,19.5 µM (inactive)
same,GI50,CCRF-CEM,6.46 µM (inactive)
same,GI50,MOLT-4,14.9 µM (inactive)
same,GI50,UACC-257,14.2 µM (inactive)
same,GI50,SNB-78,11.3 µM (inactive)
same,GI50,OVCAR-3,8 µM (inactive)
same,GI50,NCI-H23,14.7 µM (inactive)
same,GI50,NCI-H460,9.82 µM (inactive)
same,GI50,EKVX,8.05 µM (inactive)
same,GI50,HOP-18,7.01 µM (inactive)
same,GI50,UACC-62,6.64 µM (inactive)
same,GI50,HCC 2998,> 42.2 µM (inactive)
same,GI50,DMS-114,14.1 µM (inactive)
same,GI50,Malme-3M,5.98 µM (inactive)
same,GI50,HOP-62,2.55 µM (inactive)
same,GI50,SNB-19,14.7 µM (inactive)
same,GI50,K562,14.7 µM (inactive)
same,GI50,RXF 393,8.61 µM (inactive)
same,GI50,SK-OV-3,18.7 µM (inactive)

# From ChEMBL document CHEMBL1201862, “PubChem BioAssay data set” (2004)
